Structures can show the parent of a compound that is named as a salt.
What was measured:
Type in all cases: cell-based
[1] = test system: NF-κB; experiment: NF-κB luciferase reporter assay in RAW 264.7 macrophages; details: RAW 264.7 cells with 3× NFκB response element luciferase reporter, 2 hour pretreatment, 200 ng/ml LPS for 3 hours; for IC50: Mus musculus, RAW264.7, read-out: NF-kB inhibitory activity
Protocol: RAW 264.7 cells stably expressing a 3× NFκB response elemement-drive luciferase reporter were seeded into 96 well plates in sera-free medium (Optimem) 18 hours prior to compound application. Compounds of the invention were prepared by first making […] stock solutions in EtOH. Stock solutions were then diluted 1:100 in low LPS FBS (Gemini BenchMark 100-106), mixed vigorously and allowed to incubate at room temperature for 30 minutes, 1:2 serial dilutions were then made in FBS supplemented with 1% EtOH, mixed vigorously, and again allowed to incubate at room temperature for 30 minutes before adding to RAW 264.7 reporter cells (final concentrations: 10% FBS, 100 uM highest compound dilution, 0.1% EtOH) for a 2 hour pretreatment prior to stimulation with LPS. Cells were then stimulated with 200 ng/ml LPS or vehicle control for 3 hours in the presence of the compounds of the invention. A set of six vehicles was left unstimulated with LPS in order to measure the assay floor. AlamarBlue viability dye (Invitrogen) was added to cells simultaneously with the delivery of LPS (final AlamarBlue concentration of 10%). After the 3 h incubation period with LPS, cell viability was measured by reading fluorescence (excitation 550 nm, emission 595 nm) with a Perkin Elmer Victor V plate reader. Then cell media was aspirated from each well. Luciferase signal was then developed by addition of the Britelite Plus reagent (Perkin Elmer). Luciferase activity was measured with the Perkin Elmer Victor V plate reader. NF-κB activity was expressed as a percent of the vehicle control wells (stimulated with LPS). Compounds were tested at 6 dose point titrations in triplicate to determine IC50 values.
Table 1 summarizes the IC50 values for a number of fatty acid fumarate conjugates in this NF-κB luciferase reporter assay. In this table, MMF=mono methyl fumarate.

[2] = test system: Hmox1; experiment: Hmox1 target gene expression in RAW264.7 macrophages; details: RAW264.7; 50 μM and 100 μM; FIG. 4
Protocol: RAW264.7 macrophages are seeded at a density of 100,000 cells/well in a 96-well plate in DMEM supplemented with 10% FBS and Penn/strep. 16 hours later, medium is aspirated and replaced with 90 μl/well of serum-free DMEM. A fatty acid fumarate conjugate, DHA and EPA are brought up in 100% EtOH to a concentration of 100 mM and then diluted 1:100 In 100% FBS for a 20× stock solution consisting of 1 mM compound and 1% EtOH. The fatty acid fumarate conjugate 20× stock solutions are diluted 1:2 in FBS supplemented with 1% EtOH for a 500 uM 10× stock solution, whereas equal volumes of the DHA and EPA 20× stock solutions are mixed to create a 10× stock solution containing 500 μm each of DHA and EPA. […] The compounds are allowed to pre-incubate for 2 hours before stimulation of 100 ng/ml LPS (10 μl of 1 μg/ml LPS is added to each well). Following 3 hours of LPS stimulation, cells are washed once in 1× PBS, aspirated dry, and flash frozen in liquid nitrogen. RNA is then isolated and converted to cDNA using the Cells to cDNA kit (Ambion) according to the manufacturer's protocol. Transcript levels are then measured using ABI Taqman primer/probe assay kits, normalized to GAPDH using the deltaCt method, and the data expressed relative to vehicle only control.

[3] = test system: IL-1β; experiment: IL-1β gene expression in LPS-stimulated RAW264.7 macrophages; details: RAW264.7; 50 μM and 100 μM; FIG. 4
Protocol: RAW264.7 macrophages were seeded at a density of 100,000 cells/well in a 96-well plate in DMEM supplemented with 10% FBS and Penn/strep. 16 hours later, medium was aspirated and replaced with 90 μl/well of serum-free DMEM. A fatty acid fumarate conjugate, DHA and monomethyl-fumarate (MMF) were brought up in 100% EtOH to a concentration of 100 mM and then diluted 1:100 in 100% FBS for a stock solution consisting of 1 mM compound and 1% EtOH. these stock solutions were then diluted 1:10 in FBS supplemented with 1% EtOH to generate a 100 μM of a fatty acid fumarate conjugate and 100 μM each of DHA and MMF. 10 μl was then added to the RAW246.7 cells to generate final concentrations 10 μM of the fatty acid fumarate conjugate or 10 μM each DHA and MMF, along with vehicle only control. […] IL-1β and TNF-α transcript levels were then measured using Taqman primer/probe assay sets (Applied Biosystems), normalized to GAPDH using the deltaCt method, and the data expressed relative to vehicle only control. […]
RAW264.7 macrophages are seeded at a density of 100,000 cells/well in a 96-well plate in DMEM supplemented with 10% FBS and Penn/strep. […] Transcript levels are then measured using ABI Taqman primer/probe assay kits, normalized to GAPDH using the deltaCt method, and the data expressed relative to vehicle only control.

IC50 [1] [µM] | NF-kB inhibitory activity [1] | Compound | further results
– | + + | CC/C=C\C/C=C\C/C=C\C/C=C\C/C=C\C/C=C\CCC(=O)NCCOCCNC(=O)/C=C/C(=O)OC [Compound I-3, (E)-methyl 4-(2-(2-(4Z,7Z,10Z,13Z,16Z,19Z)-docosa-4,7,10,13,16,19-hexaenamidoethoxy)ethylamino)-4-oxobut-2-enoate] | –
– | + + | CC/C=C\C/C=C\C/C=C\C/C=C\C/C=C\C/C=C\CCC(=O)N1CCN(C(=O)/C=C/C(=O)OC)CC1 [Compound I-40, (E)-methyl 4-(4-(4Z,7Z,10Z,13Z,16Z,19Z)-docosa-4,7,10,13,16,19-hexaenoylpiperazin-1-yl)-4-oxobut-2-enoate] | –
50 to 200 | – | CC/C=C\C/C=C\C/C=C\C/C=C\C/C=C\C/C=C\CCC(=O)N1C[C@@H](C)N(C(=O)/C=C/C(=O)OC)[C@@H](C)C1 [Compound I-41, (E)-methyl 4-((2R,6S)-4-((4Z,7Z,10Z,13Z,16Z,19Z)-docosa-4,7,10,13,16,19-hexaenoyl)-2,6-dimethylpiperazin-1-yl)-4-oxobut-2-enoate] | –
≥ 100 | – | CC/C=C\C/C=C\C/C=C\C/C=C\C/C=C\C/C=C\CCC(=O)N(C)CCN(C)C(=O)/C=C/C(=O)OC [Compound I-104, (E)-methyl 4-(methyl(2-((4Z,7Z,10Z,13Z,16Z,19Z)-N-methyldocosa-4,7,10,13,16,19-hexaenamido)ethyl)amino)-4-oxobut-2-enoate] | –
– | + + | CC/C=C\C/C=C\C/C=C\C/C=C\C/C=C\C/C=C\CCC(=O)NCCNC(=O)/C=C/C(=O)OC [Compound I-67] | –
– | + + | CC/C=C\C/C=C\C/C=C\C/C=C\C/C=C\C/C=C\CCC(=O)NCCN(C)CCNC(=O)/C=C/C(=O)OC [Compound I-4, (E)-methyl 4-(2-((2-(4Z,7Z,10Z,13Z,16Z,19Z)-docosa-4,7,10,13,16,19-hexaenamidoethyl)(methyl)amino)ethylamino)-4-oxobut-2-enoate] | –
– | + + | CC/C=C\C/C=C\C/C=C\C/C=C\C/C=C\C/C=C\CCC(=O)NCC(C)(C)NC(=O)/C=C/C(=O)OC [Compound I-22] | –

The remaining lines, values behind:

Compound | IC50 [1] [µM] | NF-kB inhibitory activity [1] | further results
CC/C=C\C/C=C\C/C=C\C/C=C\C/C=C\C/C=C\CCC(=O)NCCNC(=O)/C=C/C(=O)O [Compound I-102, (E)-4-(2-(4Z,7Z,10Z,13Z,16Z,19Z)-docosa-4,7,10,13,16,19-hexaenamidoethylamino)-4-oxobut-2-enoic acid] | ≥ 100 | – | –
CC/C=C\C/C=C\C/C=C\C/C=C\C/C=C\CCCC(=O)N[C@@H](CCCCNC(=O)/C=C/C(=O)OC)C(=O)O [Compound I-72, (S)-2-((5Z,8Z,11Z,14Z,17Z)-icosa-5,8,11,14,17-pentaenamido)-6-((E)-4-methoxy-4-oxobut-2-enamido)hexanoic acid] | 50 to 200 | – | –
COC(=O)/C=C/C(=O)O [MMF, mono methyl fumarate, reference compound] | ≥ 100 | – | –
CC/C=C\C/C=C\C/C=C\C/C=C\C/C=C\C/C=C\CCC(=O)NCCCC[C@H](NC(=O)/C=C/C(=O)OC)C(=O)OC [Compound I-6, (S)-methyl 6-((4Z,7Z,10Z,13Z,16Z,19Z)-docosa-4,7,10,13,16,19-hexaneamido)-2-((E)-4-methoxy-4-oxobut-2-enamido)hexanoate] | – | + + | –
CC/C=C\C/C=C\C/C=C\C/C=C\C/C=C\CCCC(=O)NCCNC(=O)/C=C/C(=O)OC [Compound I-2, (E)-methyl 4-(2-(5Z,8Z,11Z,14Z,17Z) -eicosa-5,8,11,14,17-pentaenamidoethylamino)-4-oxobut-2-enoate] | – | + + | –
CC/C=C\C/C=C\C/C=C\C/C=C\C/C=C\C/C=C\CCC(=O)NCCSSCCNC(=O)/C=C/C(=O)OC [Compound I-5, (E)-methyl 4-(2-(2-(2-(4Z,7Z,10Z,13Z,16Z,19Z)-docosa-4,7,10,13,16,19-hexaenamidoethyl)disulfanyl)ethylamino)-4-oxobut-2-enoate] | 50 to 200 | – | –
CC/C=C\C/C=C\C/C=C\C/C=C\C/C=C\C/C=C\CCC(=O)NCCN1C(=O)CC(SC[C@H](NC(=O)/C=C/C(=O)OC)C(=O)OC)C1=O (stereo partly drawn) [Compound I-39, (E)-methyl 4-((R)-3-(1-(2-(4Z,7Z,10Z,13Z,16Z,19Z)-docosa-4,7,10,13,16,19-hexaenamidoethyl)-2,5-dioxopyrrolidin-3-ylthio)-1-methoxy-1-oxopropan-2-ylamino)-4-oxobut-2-enoate] | 50 to 200 | – | –
COC(=O)/C=C/C(=O)NCCNC(=O)CCCC[C@@H]1CCSS1 [Compound I-105, (R,E)-methyl 4-(2-(5-(1,2-dithiolan-3-yl)pentanamido)ethylamino)-4-oxobut-2-enoate] | – | – | effect on the target gene Hmox1 [2]: positive effect; effect on IL-1β target gene expression [3]: positive effect
CC/C=C\C/C=C\C/C=C\C/C=C\C/C=C\C/C=C\CCC(=O)NCCNC(=O)/C=C/C(=O)OCC [Compound I-66, (E)-ethyl 4-(2-(4Z,7Z,10Z,13Z,16Z,19Z)-docosa-4,7,10,13,16,19-hexaenamidoethylamino)-4-oxobut-2-enoate] | 50 to 200 | – | –
CC/C=C\C/C=C\C/C=C\C/C=C\C/C=C\C/C=C\CCC(=O)NCCOC(=O)/C=C/C(=O)OC [Compound I-103, 2-(4Z,7Z,10Z,13Z,16Z,19Z)-docosa-4,7,10,13,16,19-hexaenamidoethyl methyl fumarate] | 50 to 200 | – | –

Source: patent US9289503B2, “Fatty acid fumarate derivatives and their uses” (Catabasis Pharmaceuticals, Inc., priority 2010, dated 2016)
